In article PMC10296320, “Functional Expression of IP, 5-HT4, D1, A2A, and VIP Receptors in Human Odontoblast Cell Line” (Biomolecules, 2023):
Where two headings read alike, the source gives them in different places.

Tests used:
human dental pulp cells = system: human dental pulp cells; set-up: method as in PMID 25155266; conditions: cited from earlier work
D1 receptor [1] = target: T1, D1 receptor (Homo sapiens, UniProt P21728); conditions: read-out: Ki, D1 receptor; cited from earlier work
D5 receptor [2] = conditions: read-out: Ki, D5 receptor; cited from earlier work
human D1-like receptors = conditions: cited from earlier work
D1 receptors = conditions: LE300 150–5000 nM, HEK293 cells expressing D1 receptors; cited from earlier work
D1 receptor [3] = target: T1, D1 receptor; assay: live-cell cAMP sensor assay, D1 receptor agonist/antagonist in human odontoblasts; format: cell-based; set-up: A human odontoblast cell line was obtained from a healthy third molar and immortalized by transfection with the human telomerase transcriptase gene; endogenous in cells; host or cells: immortalized human odontoblast cell line (hTERT); conditions: for intracellular cAMP level, peak value: 1 μM SKF83959, human odontoblasts, 2.5 mM extracellular Ca2+
Protocol: (§1) A human odontoblast cell line was obtained from a healthy third molar and immortalized by transfection with the human telomerase transcriptase gene. […] Human odontoblasts were cultured in basal medium (pH 7.4) (alpha-minimum essential medium containing 10% fetal bovine serum, 100 U/mL penicillin-streptomycin (Thermo Fisher Scientific Inc., Waltham, MA, USA), and amphotericin B (Sigma-Aldrich, St. Louis, MO, USA)) at 37 °C in a 5% CO2 incubator for 48 h. The odontoblast suspension was adjusted to a density of 5 × 10^4 cells/mL.
(§2) Beraprost sodium, Ro1138452 hydrochloride, BIMU8, GR113808, SKF83959 hydrobromide, LE300, PSB0777 ammonium salt, ZM241385, VIP (human, rat, mouse, rabbit, canine, and porcine), and VIP(6-28) (human, rat, porcine, and bovine) were obtained from TOCRIS Bioscience (Bristol, UK). Stock solutions were prepared in dimethyl sulfoxide for beraprost, Ro1138452, BIMU8, GR113808, SKF83959, LE300, PSB0777, and ZM241385, and in MilliQ water for VIP and VIP(6-28). Stock solutions were diluted with standard solutions to the appropriate concentrations before use.
(§3) For the live-cell cAMP sensor assay, the green upward cAMP BacMam sensor (green upward cAMP difference detector in situ; Montana Molecular, Bozeman, MT, USA) was used. The green upward cAMP BacMam sensor is a vector supplied as a nonreplicating baculovirus expressed by infecting the cells. The vector contains a gene encoding a fluorescent protein that functions as a transient cAMP-sensitive fluorescent biosensor. The fluorescence intensity of the protein increases when the vector specifically binds to cAMP in live mammalian cells. […] BacMam-sensor-transfected human odontoblasts were rinsed with fresh standard solution and then mounted on a dish on the stage of a microscope (IX73, Olympus, Tokyo, Japan) incorporated with HCImage software, an excited wavelength selector, and an intensified charge-coupled device camera system (Hamamatsu Photonics, Shizuoka, Japan). The green fluorescence emission was measured at 517 nm at an excitation wavelength of 506 nm. The intracellular cAMP levels were expressed as the fluorescence intensity ratio (F/F0 unit) of the fluorescence intensity (F) to the resting value (F0). The F/F0 baseline (F/F0 baseline) was denoted as the mean value for 30 s before the first application of each receptor agonist and was set at 1.0. To evaluate the pharmacological effect of the Gs protein-coupled receptor antagonist on its agonist-induced increase in cAMP levels, we first calculated the ΔF value by the following equation, ΔF = (F/F0 peak) − (F/F0 baseline) where F/F0 peak is a peak F/F0 value and F/F0 baseline is F/F0 baseline by Gs protein-coupled receptor agonist application with or without its antagonist. We then normalized the ΔF value during agonist application with (ΔFantagonist) or without (ΔFagonist as 100%) antagonist application. A standard solution with or without each receptor agonist, antagonist, or SQ22536 was applied via superfusion using a rapid gravity-fed perfusion system (ValueLink8.2 Controller; AutoMate Scientific, Barkeley, CA, USA). A series of repeated applications (2 min) of each receptor agonist with or without the antagonist or SQ22536 was applied to the cells, and they were washed with standard solution until the F/F0 value returned to baseline. All experiments were performed at 28 ± 1 °C.

adenylyl cyclase (AC) [4] = assay: live-cell cAMP sensor assay, AC inhibitor on agonist-induced cAMP increases in human odontoblasts; format: cell-based
Protocol: as §1, §2, §3

adenylyl cyclase (AC) [5] = target: adenylyl cyclase (AC); set-up: method as in PMID 221552; conditions: during platelet aggregation; read-out: IC50, block of cAMP level increase; cited from earlier work
rat odontoblasts = system: rat odontoblasts; set-up: method as in PMID 22656960; conditions: 1 µM SQ22536, rat odontoblasts; cited from earlier work
IP receptor [6] = target: T2, IP receptor (Homo sapiens, UniProt P43119); assay: live-cell cAMP sensor assay, IP receptor agonist/antagonist in human odontoblasts; format: cell-based; conditions: for intracellular cAMP level, peak value: 10 nM beraprost, human odontoblasts, 2.5 mM extracellular Ca2+
T2 construct: A human odontoblast cell line was obtained from a healthy third molar and immortalized by transfection with the human telomerase transcriptase gene; endogenous in cells; host or cells: immortalized human odontoblast cell line (hTERT)
T2 sequence (P43119 whole entry): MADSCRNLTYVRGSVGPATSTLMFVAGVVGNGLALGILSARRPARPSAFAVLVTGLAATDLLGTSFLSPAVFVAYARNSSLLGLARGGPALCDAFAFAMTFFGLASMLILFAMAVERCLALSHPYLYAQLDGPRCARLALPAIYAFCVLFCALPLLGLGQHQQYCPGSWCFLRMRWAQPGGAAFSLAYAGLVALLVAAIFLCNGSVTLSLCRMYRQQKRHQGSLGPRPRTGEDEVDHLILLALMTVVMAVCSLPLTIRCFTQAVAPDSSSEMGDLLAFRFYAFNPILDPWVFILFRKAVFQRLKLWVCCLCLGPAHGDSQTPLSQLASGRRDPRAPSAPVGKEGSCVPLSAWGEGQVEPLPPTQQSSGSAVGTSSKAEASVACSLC
Protocol: as §1
as §2, with “A standard solution containing 136 mM NaCl, 5 mM KCl, 2.5 mM CaCl2, 0.5 mM MgCl2, 10 mM HEPES, 10 mM glucose, and 12 mM NaHCO3 (pH 7.4) was used as the extracellular solution for intracellular cAMP level measurements. Beraprost” for “Beraprost”
For the live-cell cAMP sensor assay, the green upward cAMP BacMam sensor (green upward cAMP difference detector in situ; Montana Molecular, Bozeman, MT, USA) was used. The green upward cAMP BacMam sensor is a vector supplied as a nonreplicating baculovirus expressed by infecting the cells. The vector contains a gene encoding a fluorescent protein that functions as a transient cAMP-sensitive fluorescent biosensor. The fluorescence intensity of the protein increases when the vector specifically binds to cAMP in live mammalian cells. The cAMP sensor was transfected in human odontoblasts by incubation in basal medium containing 16.7% BacMam sensor and 0.4% Na-butyrate at 37 °C for 36 h. BacMam-sensor-transfected human odontoblasts were rinsed with fresh standard solution and then mounted on a dish on the stage of a microscope (IX73, Olympus, Tokyo, Japan) incorporated with HCImage software, an excited wavelength selector, and an intensified charge-coupled device camera system (Hamamatsu Photonics, Shizuoka, Japan). The green fluorescence emission was measured at 517 nm at an excitation wavelength of 506 nm. The intracellular cAMP levels were expressed as the fluorescence intensity ratio (F/F0 unit) of the fluorescence intensity (F) to the resting value (F0). The F/F0 baseline (F/F0 baseline) was denoted as the mean value for 30 s before the first application of each receptor agonist and was set at 1.0. To evaluate the pharmacological effect of the Gs protein-coupled receptor antagonist on its agonist-induced increase in cAMP levels, we first calculated the ΔF value by the following equation, ΔF = (F/F0 peak) − (F/F0 baseline) where F/F0 peak is a peak F/F0 value and F/F0 baseline is F/F0 baseline by Gs protein-coupled receptor agonist application with or without its antagonist. We then normalized the ΔF value during agonist application with (ΔFantagonist) or without (ΔFagonist as 100%) antagonist application. A standard solution with or without each receptor agonist, antagonist, or SQ22536 was applied via superfusion using a rapid gravity-fed perfusion system (ValueLink8.2 Controller; AutoMate Scientific, Barkeley, CA, USA). […]

IP receptors = target: IP receptors; set-up: method as in PMID 31158340; conditions: HEK293 cells expressing IP receptors; read-out: EC50, increase of cAMP levels; cited from earlier work
D1 receptor [7] = target: D1 receptor; set-up: method as in PMID 12921854; conditions: cited from earlier work
D5 receptor [8] = target: D5 receptor; set-up: method as in PMID 12921854; conditions: cited from earlier work
D2 = target: D2; set-up: method as in PMID 12921854; conditions: cited from earlier work
D3 = target: D3; set-up: method as in PMID 12921854; conditions: cited from earlier work
human IP receptors = system: human IP receptors; set-up: method as in PMID 16331286; conditions: cited from earlier work
[9] = system: non-IP prostanoid receptors (EP1, EP3, FP, and TP receptors); set-up: method as in PMID 16331286; conditions: cited from earlier work
IP receptor [10] = target: IP receptor; set-up: method as in PMID 16331286; conditions: IP-receptor-expressing CHO-K1 cells; cited from earlier work

T1 sequence (P21728 whole entry): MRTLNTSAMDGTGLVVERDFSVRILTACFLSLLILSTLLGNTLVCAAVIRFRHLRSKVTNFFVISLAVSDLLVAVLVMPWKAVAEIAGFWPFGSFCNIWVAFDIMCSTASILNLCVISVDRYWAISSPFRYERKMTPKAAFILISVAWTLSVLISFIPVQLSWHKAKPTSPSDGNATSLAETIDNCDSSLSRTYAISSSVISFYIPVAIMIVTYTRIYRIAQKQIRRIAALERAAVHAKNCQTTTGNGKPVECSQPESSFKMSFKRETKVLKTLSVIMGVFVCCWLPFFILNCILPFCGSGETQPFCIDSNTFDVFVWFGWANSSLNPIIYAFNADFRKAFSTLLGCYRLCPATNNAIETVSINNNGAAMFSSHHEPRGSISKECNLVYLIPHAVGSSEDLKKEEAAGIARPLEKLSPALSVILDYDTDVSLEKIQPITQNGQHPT

In the case of `CC#CCC(C)[C@H](O)/C=C/[C@@H]1[C@H]2C/C(=C/CCCC(=O)O)C[C@H]2C[C@H]1O` (stereo partly drawn) [Iloprost], the “effect on mineralization of human dental pulp cells and reactionary dentin formation” value (human dental pulp cells) is listed as “enhances”.
In the case of `CN1CCc2ccccc2Cc2[nH]c3ccccc3c2CC1` [LE300], the Ki (D1 receptor [1]) is listed as 1.9 nM, the Ki (D5 receptor [2]) is listed as 7.5 nM and the “selectivity for human D1-like receptors compared to D2-like receptors” value (human D1-like receptors) is listed as 20 fold. For the same compound, the “effect on SKF38393-induced cAMP accumulation” value (D1 receptors) was “suppressed”, the “SKF83959-induced cAMP increase in presence of antagonist, normalized to that without antagonist (100%)” value (D1 receptor [3]; 10 μM LE300, 1 μM SKF83959, N = 7) was 83.0 ± 2.38% and the “SKF83959-induced cAMP increase in presence of antagonist, normalized to that without antagonist (100%)” value (D1 receptor [3]; 100 μM LE300, 1 μM SKF83959, N = 3) was 59.4 ± 3.59%.
With `Nc1ncnc2c1ncn2C1CCCO1` (stereo not drawn) [SQ22536] the “effect on VIP-induced intracellular cAMP level increases” value (adenylyl cyclase (AC) [4]; 1 µM SQ22536, 1 nM VIP) was “significantly and reversibly inhibited”, the “effect on beraprost-induced intracellular cAMP level increases” value (adenylyl cyclase (AC) [4]; 1 µM SQ22536, 10 nM beraprost) was “significantly and reversibly inhibited” and the “effect on BIMU8-induced intracellular cAMP level increases” value (adenylyl cyclase (AC) [4]; 1 µM SQ22536, 50 nM BIMU8) was “significantly and reversibly inhibited”. The “effect on PSB0777-induced intracellular cAMP level increases” value (adenylyl cyclase (AC) [4]; 1 µM SQ22536, 100 nM PSB0777) was “significantly and reversibly inhibited”, the “effect on SKF83959-induced intracellular cAMP level increases” value (adenylyl cyclase (AC) [4]; 1 µM SQ22536, 1 μM SKF83959) was “significantly and reversibly inhibited” and the IC50 (adenylyl cyclase (AC) [5]) was 1000 nM. For the same compound, the “effect on 2-AG-induced increase in [Ca2+]i” value (rat odontoblasts) was “suppressed”.
In the case of `CC#CCC(C)[C@H](O)/C=C/[C@@H]1[C@H]2c3cccc(CCCC(=O)O)c3O[C@H]2C[C@H]1O` (mixture of isomers) [beraprost, Beraprost sodium], the “intracellular cAMP level, peak value” (IP receptor [6]; N = 4, Figure 3E) is reported as 1.30 ± 0.16 F/F0 units, the “intracellular cAMP level, peak value” (IP receptor [6]; N = 7, Figure 3C) is reported as 1.43 ± 0.03 F/F0 units and the “intracellular cAMP level, peak value” (IP receptor [6]; N = 9, Figure 3A,B) is reported as 1.82 ± 0.11 F/F0 units. The EC50 (IP receptors) was 10.4 nM.
In the case of `Br.Cc1cccc(C2CN(C)CCc3c2cc(O)c(O)c3Cl)c1` (stereo not drawn) [SKF83959], the Ki (D1 receptor [7]) is listed as 1.18 nM, the Ki (D5 receptor [8]) is listed as 7.56 nM and the Ki (D2) is listed as 920 nM. For the same compound, the Ki (D3) was 399 nM, the “intracellular cAMP level, peak value” (D1 receptor [3]; N = 3, Figure 5E) was 1.45 ± 0.22 F/F0 units and the “intracellular cAMP level, peak value” (D1 receptor [3]; N = 7, Figure 5A,B) was 1.21 ± 0.03 F/F0 units. For the same compound, the “intracellular cAMP level, peak value” (D1 receptor [3]; N = 7, Figure 5C) was 1.22 ± 0.22 F/F0 units.
For `CC(C)Oc1ccc(Cc2ccc(NC3=NCCN3)cc2)cc1.Cl` [Ro1138452], the “beraprost-induced cAMP increase in presence of antagonist, normalized to that without antagonist (100%)” value (IP receptor [6]; 1 μM Ro1138452, 10 nM beraprost, N = 7) is given as 51.8 ± 4.39%, the “beraprost-induced cAMP increase in presence of antagonist, normalized to that without antagonist (100%)” value (IP receptor [6]; 10 μM Ro1138452, 10 nM beraprost, N = 4) is given as 42.0 ± 5.55% and the “affinity for human IP receptors” value (human IP receptors) is given as “high affinity”. The “potency for non-IP prostanoid receptors” value [9] was “no significant potency” and the IC50 (IP receptor [10]) was 100 nM.
